From patent US8426414B2, “Modulators of G protein-coupled receptor 88” (Bristol-Myers Squibb Company, priority 2009, dated 2013) come the findings set out here.

Each structure is given as a SMILES string. Counter-ions that a name gives are not always drawn. Like-named read-outs stand apart in the source and are kept apart here.

Series [1] addresses G protein-coupled receptor 88 (Homo sapiens, UniProt Q9GZN0). As to the kind of experiment: GPR88 functional assay for the Table 2 EC50 values (GTPγS assay and cAMP HTRF assay described; table does not say which). To be noted: read-out: Range (EC50). The series is classed as cell-based. Here is the method:
96 well GTPγS assay plates were purchased from Perkin Elmer. Wheat Germ Agglutinin PVT SPA beads and […] were purchased from Amersham GDP, GTPγS and all buffer reagents were from Sigma. 384 well white NBS plates were purchased from corning. Pertussis toxin was purchased from Calbiochem. All cell culture reagents were purchased from Invitrogen. Forskolin was purchased from Sigma. The cAMP HTRF kit was purchased from Cisbio International.
The GTPγS assay buffer consisted of 10 mM MgCl2, 180 mM NaCl, 200 uM GDP, 0.167 mg/ml DTT, 1 mM EGTA and 20 mM HEPES pH7.4. This buffer was used for dilution of membranes, beads, and ^35S GTPγS components. To each well of the 96 well assay plate 48 ul assay buffer, 2 ul of 100× compound, 50 ul membrane solution (0.2 ug/ul), 50 ul ^35S GTPγS solution (0.8 nM) and 50 ul of SPA beads (10 mg/ml). Non-specific binding was determined by the addition of cold GTPγS to control wells. The plates were sealed with clear sealing tape and incubated at room temperature for 1 hour. GTPγS activity was detected using a Wallac Micro-Beta Trilux liquid scintillation counter. Non-specific binding was determined using 10 uM cold GTPγS.
The cAMP HTRF assay is modified from the Cisbio International kit procedure 62AM4PEJ. Assay plates were prepared by stamping 0.1 ul of 100× compound stock solutions diluted in DMSO or DMSO alone into 384 well NBS plates. The cAMP HTRF assay was performed using cells in suspension. The cAMP HTRF assay buffer consisted of Hank's Balanced Salt Solution (HBSS), 2 mM CaCl2, 5 mM MgCl2, 20 mM HEPES and 1 mM 3-isobutyl-1-methylxanthine (IBMX) (added fresh at the time of assay). For pertussis toxin treatment pertussis toxin (100 ng/ml) was added to culture medium for 16 hours prior to assay. Confluent cells were disrupted with cell dissociation buffer count cells then centrifuged at 1000×g for 5 minutes. The cell pellet was resuspended in assay buffer alone for basal cAMP measurements or with 0.75 uM forskolin (added immediately prior to addition to wells) for addition to all other wells. Using a Multidrop 384 (Lab systems) 10 ul of cell suspension was added to each well containing compound or DMSO. The plates were incubated at room temperature for 30 minutes covered. During this time the cAMP standard curve was prepared as per manufacturer's instruction. At the end of the incubation 10 ul of anti-cAMP cryptate and 10 ul cAMP-XL, diluted in manufacturer's lysis buffer, were added to each well. The plated were incubated at room temperature for 60 minutes covered then read on an Envision plate reader (Perkin Elmer) and the 665 nm/620 nm fluorescence ratio determined Fluorescence ratio values were converted to molar cAMP concentrations from the standard curve using the GraphPad Prism program.

Sequence of G protein-coupled receptor 88 (Q9GZN0 whole entry, species assumed): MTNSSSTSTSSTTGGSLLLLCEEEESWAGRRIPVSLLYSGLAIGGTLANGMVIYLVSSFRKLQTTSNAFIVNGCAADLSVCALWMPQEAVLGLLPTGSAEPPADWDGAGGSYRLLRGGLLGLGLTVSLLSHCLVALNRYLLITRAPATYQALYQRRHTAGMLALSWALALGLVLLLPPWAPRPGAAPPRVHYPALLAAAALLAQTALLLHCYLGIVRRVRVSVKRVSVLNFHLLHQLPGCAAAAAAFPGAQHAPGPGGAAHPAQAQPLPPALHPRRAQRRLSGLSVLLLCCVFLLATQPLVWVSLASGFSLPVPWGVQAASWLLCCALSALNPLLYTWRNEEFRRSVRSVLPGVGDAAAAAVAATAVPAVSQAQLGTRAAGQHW

On to `CC[C@H](C)[C@H](N)CN(C(=O)[C@@H]1C[C@H]1c1ccccn1)c1ccc(-c2ccc(OC(C)C)cc2)cc1` [Example 2, (1R,2R)-2-Pyridin-2-yl-cyclopropanecarboxylic acid ((2S,3S)-2-amino-3-methyl-pentyl)-(4′-isopropoxy-biphenyl-4-yl)-amide], for which the EC50 in series [1] (class symbol X) is 3 to 20 nM.

Regarding `CCCc1ccc(-c2ccc(N(C[C@@H](N)[C@@H](C)CC)C(=O)C3CC3c3cnccn3)cc2)cc1` (stereo partly drawn) [Example 11, (Trans)-2-pyrazin-2-yl-cyclopropanecarboxylic acid ((2S,3S)-2-amino-3-methyl-pentyl)-(4′-propyl-biphenyl-4-yl)-amide], in series [1] (class symbol X), the EC50 was in the range of 3 to 20 nM.

Consider `CCCC#Cc1ccc(N(C[C@@H](N)[C@@H](C)CC)C(=O)C2CC2c2cccc(F)n2)cc1` (stereo in doubt) [Example 19, (1S,2S)-2-(6-Fluoro-pyridin-2-yl)-cyclopropanecarboxylic acid ((2S,3S)-2-amino-3-methyl-pentyl)-(4-pent-1-ynyl-phenyl)-amide 2TFA], for which the EC50 in series [1] (class symbol X) fell in the range of 3 to 20 nM.

For `CC[C@H](C)[C@H](N)CN(C(=O)[C@@H]1C[C@H]1c1ccc(F)cn1)c1ccc2cc(C3CC3)ccc2c1` [Example 20], in series [1] (class symbol X), the EC50 was 3 to 20 nM.

Take `CCCc1ccc(-c2ccc(N(CC3(N)CCCC3)C(=O)[C@@H]3C[C@H]3c3cccc(F)n3)cc2)cc1` (relative stereo) [Example 6, Trans-2-(6-fluoro-pyridin-2-yl)-cyclopropanecarboxylic acid (1-amino-cyclopentylmethyl)-(4′-propyl-biphenyl-4-yl)-amide]: in series [1] (class symbol X), the EC50 was in the range of 3 to 20 nM.

In the case of `COCc1ccc(-c2ccc(N(CC3(N)CCCC3)C(=O)[C@@H]3C[C@H]3c3cccc(F)n3)cc2)cc1` (relative stereo) [Example 8, Trans-2-(6-fluoro-pyridin-2-yl)-cyclopropanecarboxylic acid (1-amino-cyclopentylmethyl)-(4′-methoxymethyl-biphenyl-4-yl)-amide], the EC50 in series [1] (class symbol X) was in the range of 3 to 20 nM.

For `CC(C)Oc1ccc(-c2ccc(N(CC3(N)CCCC3)C(=O)[C@@H]3C[C@H]3c3cccc(F)n3)cc2)cc1` (relative stereo) [Example 7, Trans-2-(6-fluoro-pyridin-2-yl)-cyclopropanecarboxylic acid (1-amino-cyclopentylmethyl)-(4′-isopropoxy-biphenyl-4-yl)-amide], the EC50 in series [1] (class symbol X) lay in the range of 3 to 20 nM.

For the compound `CC[C@H](C)[C@H](N)CN(C(=O)[C@@H]1C[C@H]1c1cccc(F)n1)c1ccc(-c2ccc(OC(C)C)cc2)cc1` [Example 15, Trans-2-(6-fluoro-pyridin-2-yl)-cyclopropanecarboxylic acid ((2S,3S)-2-amino-3-methyl-pentyl)-(4′-isopropoxy-biphenyl-4-yl)-amide], in series [1] (value given as number), the EC50 is 8 nM.

As for `CC[C@H](C)[C@H](N)CN(C(=O)[C@@H]1C[C@H]1c1ccccn1)c1ccc(-c2ccc(COC)cc2)cc1` [Example 1, (1R,2R)-2-Pyridin-2-yl-cyclopropanecarboxylic acid ((2S,3S)-2-amino-3-methyl-pentyl)-(4′-methoxymethyl-biphenyl-4-yl)-amide], the EC50 in series [1] (class symbol X) was in the range of 3 to 20 nM.

`CC[C@H](C)[C@H](N)CN(C(=O)[C@@H]1C[C@H]1c1ccc(F)cn1)c1ccc(OCC2CCC2)cc1` [Example 12, 2-(5-Fluoro-pyridin-2-yl)-cyclopropanecarboxylic acid ((2S,3S)-2-amino-3-methyl-pentyl)-(4-cyclobutylmethoxy-phenyl)-amide]: the EC50 in series [1] (value given as number) came out at 20 nM.

For `CC[C@H](C)[C@H](N)CN(C(=O)[C@@H]1C[C@H]1c1ccccn1)c1ccc(OCC2CCC2)cc1` [Example 13, (1R,2R)-2-Pyridin-2-yl-cyclopropanecarboxylic acid ((2S,3S)-2-amino-3-methyl-pentyl)-(4-cyclobutylmethoxy-phenyl)-amide], the EC50 in series [1] (class symbol X) lay within 3 to 20 nM.

On to `CCCc1ccc(-c2ccc(N(C[C@@H](N)[C@@H](C)CC)C(=O)[C@@H]3C[C@H]3c3cccc(F)n3)cc2)cc1` [Example 14, Trans-2-(6-fluoro-pyridin-2-yl)-cyclopropanecarboxylic acid ((2S,3S)-2-amino-3-methyl-pentyl)-(4′-propyl-biphenyl-4-yl)-amide], for which the EC50 in series [1] (class symbol X) lay within 3 to 20 nM.

As to `CCCc1ccc(-c2ccc(N(CC3(N)CCOCC3)C(=O)[C@@H]3C[C@H]3c3ccccn3)cc2)cc1` (relative stereo) [Example 9, Trans-2-Pyridin-2-yl-cyclopropanecarboxylic acid (4-amino-tetrahydro-pyran-4-ylmethyl)-(4′-propyl-biphenyl-4-yl)-amide], in series [1] (class symbol X), the concentration for a half-maximal effect (EC50) lay in the range of 3 to 20 nM.

Regarding `CCCc1ccc(-c2ccc(N(CC3(N)CCOCC3)C(=O)[C@@H]3C[C@H]3c3ccccn3)cc2)cc1` (relative stereo) (as salt: hydrochloride) [Example 9, Trans-2-Pyridin-2-yl-cyclopropanecarboxylic acid (4-amino-tetrahydro-pyran-4-ylmethyl)-(4′-propyl-biphenyl-4-yl)-amide], the melting point is 180 to 183 °C.

Take `CC[C@H](C)[C@H](N)CN(C(=O)[C@@H]1C[C@H]1c1cccc(F)n1)c1ccc(-c2ccc(COC)cc2)cc1` [Example 16, Trans-2-(6-fluoro-pyridin-2-yl)-cyclopropanecarboxylic acid ((2S,3S)-2-amino-3-methyl-pentyl)-(4′-methoxymethyl-biphenyl-4-yl)-amide]: the EC50 in series [1] (class symbol X) was in the range of 3 to 20 nM.

On to `CC#Cc1ccc(-c2ccc(N(C[C@@H](N)[C@@H](C)CC)C(=O)[C@@H]3C[C@H]3c3ccccn3)cc2)cc1` [Example 5, (1R,2R)-2-pyridin-2-yl-cyclopropanecarboxylic acid ((2S,3S)-2-amino-3-methyl-pentyl)-(4′-prop-1-ynyl-biphenyl-4-yl)-amide], for which the EC50 in series [1] (class symbol X) lay within 3 to 20 nM.

As for `CC[C@H](C)[C@H](N)CN(C(=O)[C@H]1C[C@@H]1c1ccc(F)cn1)c1ccc(-c2ccc(COC)cc2)cc1` (stereo in doubt) [Example 4, (Trans)-2-(5-fluoro-pyridin-2-yl)-cyclopropanecarboxylic acid ((2S,3S)-2-amino-3-methyl-pentyl)-(4′-methoxymethyl-biphenyl-4-yl)-amide], the half-maximal effective concentration (EC50) in series [1] (class symbol X) is 3 to 20 nM.

In the case of `CCCc1ccc(-c2ccc(N(C[C@@H](N)[C@@H](C)CC)C(=O)[C@H]3C[C@@H]3c3ncccc3F)cc2)cc1` [Example 10], the EC50 in series [1] (class symbol X) was in the range of 3 to 20 nM.

With `CC[C@H](C)[C@H](N)CN(C(=O)[C@@H]1C[C@H]1c1ccc(F)cn1)c1ccc(OCC2CCC2)cc1` [Example 17, (1R,2R)-2-(5-Fluoro-pyridin-2-yl)-cyclopropanecarboxylic acid ((2S,3S)-2-amino-3-methyl-pentyl)-(4-cyclobutylmethoxy-phenyl)-amide], the EC50 in series [1] (class symbol X) was 3 to 20 nM.

Regarding `CCCc1ccc(-c2ccc(N(C[C@@H](N)[C@@H](C)OC)C(=O)[C@@H]3C[C@H]3c3cnccn3)cc2)cc1` [Example 18, Trans-2-pyrazin-2-yl-cyclopropanecarboxylic acid ((2R,3R)-2-amino-3-methoxy-butyl)-(4′-propyl-biphenyl-4-yl)-amide], the EC50 in series [1] (class symbol X) was in the range of 3 to 20 nM.
